# Assay results published in PMC9424906 (Frontiers in Pharmacology, 2022).
# Entries after “also recorded” stand apart in the source; their conditions may differ.
# How the values were obtained:
# in vitro [1] = format: in vitro ADME; settings: PAMPA, pH 7.4
# Description: Stirring double-sink PAMPA (patented by Pion Inc.) was employed to determine permeability. Assay was performed as described previously ([Sun et al., 2017]). The PAMPA lipid membrane, which consisted of an artificial membrane of a proprietary lipid mixture and dodecane (Pion Inc.), was optimized to predict cell membrane permeability. This artificial membrane was immobilized on a plastic matrix of a 96-well “donor” filter plate placed below a 96-well “acceptor” plate. Both “donor” and “acceptor” wells were buffered to pH 7.4. […] Permeability calculations were performed using Pion Inc. software and were expressed in the unit of 10^–6 cm/s.
# [2] = Liver microsomal stability, SD rat; format: in vitro ADME; settings: Sprague-Dawley, liver microsomes, pH 7.4, 0.5 mg/mL
# Description: (§1) Samples were analyzed using UPLC-MS/MS.
# [3] = Liver microsomal stability, CD-1 mouse; format: in vitro ADME; settings: liver microsomes, pH 7.4, 0.5 mg/mL
# Description: as §1
# in vitro [4] = format: in vitro ADME; settings: both sexes, human, plasma
# Description: Plasma protein binding experiments were carried out in mixed-gender human plasma, male Sprague-Dawley rat plasma, male CD-1 plasma, male Beagle dog plasma, and male Cynomolgus monkey plasma (BioIVT) using a Pierce Rapid Equilibration Dialysis (RED) device. […] Blank phosphate-buffered saline (PBS) (500 μL) was added to each corresponding receiver chamber. After 4 h of incubation (with shaking at 37°C), both sides were aliquoted, and matrix was normalized. Samples were centrifuged at 1000 g for 10 min after adding two volumes of ACN with IS. Supernatants were diluted 1:1 with water and analyzed with LC-MS/MS.
# Plasma Protein binding was calculated as follows:
# % Bound = [(PARR in Donor–PARR in Receiver)/(PARR in Donor)] × 100.
# PARR = peak area response ratio to internal standard, including applicable dilution factors.
# [5] = format: in vitro ADME, human, rat, mouse, dog, monkey
# Description: as §1
# CNT1 = biological target: T1, CNT1 (Homo sapiens, UniProt O00337); assay: Nucleoside transporter uptake, CNT1-transfected MDCK cells; format: in vitro ADME
# T1 construct: expressed in transfected cells; host or cells: MDCK-II
# T1 sequence (O00337 1-649): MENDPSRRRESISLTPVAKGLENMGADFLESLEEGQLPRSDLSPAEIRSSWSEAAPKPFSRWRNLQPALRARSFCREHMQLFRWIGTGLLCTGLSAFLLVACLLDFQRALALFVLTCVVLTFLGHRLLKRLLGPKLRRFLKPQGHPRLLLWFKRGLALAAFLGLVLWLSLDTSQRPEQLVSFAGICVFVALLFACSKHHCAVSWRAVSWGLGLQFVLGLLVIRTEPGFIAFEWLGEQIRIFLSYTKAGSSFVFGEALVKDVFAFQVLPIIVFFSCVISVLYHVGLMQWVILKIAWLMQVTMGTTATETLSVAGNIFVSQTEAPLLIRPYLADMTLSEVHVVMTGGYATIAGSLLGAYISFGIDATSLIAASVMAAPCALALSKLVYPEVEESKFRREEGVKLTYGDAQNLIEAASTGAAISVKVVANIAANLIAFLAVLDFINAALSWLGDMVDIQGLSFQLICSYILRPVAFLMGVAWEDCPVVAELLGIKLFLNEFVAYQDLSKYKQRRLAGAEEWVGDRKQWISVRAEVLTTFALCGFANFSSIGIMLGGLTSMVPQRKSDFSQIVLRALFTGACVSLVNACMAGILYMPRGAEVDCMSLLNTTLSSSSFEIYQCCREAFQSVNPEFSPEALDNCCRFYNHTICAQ
# From the text: (§2) Each condition was run in triplicate.
# ENT2 = biological target: T2, ENT2 (Homo sapiens, UniProt Q14542); assay: Nucleoside transporter uptake, ENT2-transfected MDCK cells; format: in vitro ADME
# T2 construct: expressed in transfected cells; host or cells: MDCK-II
# From the text: as §2
# [6] = parameters: species or system human
# Description: Allometric methods were used to predict human plasma clearance and volume of distribution ([Mahmood and Balian, 1996]; [Sharma and McNeill, 2009]). Human PK prediction was carried out with GastroPlus, version 9.6 (SimulationsPlus, Lancaster, CA)
# To predict human exposures after oral administration, human PK parameters were estimated using allometric scaling and human PK profile was simulated using GastroPlus. The allometric scaling was performed as previously described ([Mahmood and Balian, 1996]).
# [7] = system: EpiAirway human tracheobronchial epithelial tissues
# in vitro [8] = settings: human, Caco-2, pH 7.4
# BCRP = assay: in vitro; settings: human, Caco-2, pH 7.4
# MDR1 = assay: in vitro; settings: human, Caco-2, pH 7.4
# OCT1 = settings: cited from earlier work
# OAT1 = settings: cited from earlier work
# OATP1B1 = settings: cited from earlier work
# OATP1B3 = settings: cited from earlier work
# MATE2-K = settings: cited from earlier work
# [9] = 7-days dose range finding study in rats; settings: oral, 7 days, 1,500 mg/kg/day
# [10] = 7-days dose range finding study in monkeys; settings: oral, 7 days, 1,000 mg/kg/day
# T2 sequence (Q14542 whole entry): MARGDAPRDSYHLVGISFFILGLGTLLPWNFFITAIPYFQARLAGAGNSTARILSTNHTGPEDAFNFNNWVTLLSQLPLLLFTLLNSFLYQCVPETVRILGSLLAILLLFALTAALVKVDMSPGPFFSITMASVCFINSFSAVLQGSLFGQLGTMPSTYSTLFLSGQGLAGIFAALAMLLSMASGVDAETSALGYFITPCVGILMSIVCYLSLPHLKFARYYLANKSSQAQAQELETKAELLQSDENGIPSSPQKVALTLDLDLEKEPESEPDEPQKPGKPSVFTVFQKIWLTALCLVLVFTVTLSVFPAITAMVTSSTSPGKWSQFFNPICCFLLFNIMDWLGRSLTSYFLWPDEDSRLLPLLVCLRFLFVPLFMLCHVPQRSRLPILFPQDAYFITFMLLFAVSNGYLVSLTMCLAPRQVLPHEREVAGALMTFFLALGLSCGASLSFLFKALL
smiles,measurement,setting,value
N#C[C@@]1(c2ccc3c(N)ncnn23)O[C@H](CO)[C@@H](O)[C@H]1O [GS-441524],Papp at 30 min,in vitro [1],< 10 nm/s
same,half-life at 1 µM,[2],1.02 ± 0.15 h
same,half-life at 1 µM,[3],1.3 ± 0.05 h
same,"fraction unbound at 4 h, 10 µM",in vitro [4],~0.78
same,Stability in cytosolic fractions,[5],stable
same,Stability in liver microsomes,[5],stable
same,Substrate of CNT1,CNT1,not a substrate; also recorded: unlikely to be a substrate
same,Transporter uptake rate,"CNT1; CNT1, 10 μM, LOQ = 0.222 pmol/min/cm^2",BLQ
same,Difference in uptake compared to control cells,CNT1; CNT1-transfected cells,less than 2 fold
same,Substrate of ENT2,ENT2,substrate
same,Inhibition of uptake by reference inhibitor,"ENT2; ENT2-transfected cells, 100 µM adenosine",did not inhibit; also recorded: no inhibition was observed
same,Calculated human CLp as share of human hepatic blood flow,[6]; allometric scaling,approximately 10%
same,Predicted human CLp,"[6]; allometric scaling from mouse, rat, monkey, dog",0.162 L/h/kg
same,Predicted human Vdss,[6]; human,0.6 L/kg
same,Cytotoxicity,[7],did not exhibit any cytotoxicity
same,"Papp A→B at 2 h, 5 µM",in vitro [8],0.99 nm/s
same,"Papp B→A at 2 h, 5 µM",in vitro [8],9.71 nm/s
same,"Papp A→B at 2 h, 5 µM",BCRP,2.29 nm/s
same,"Papp B→A at 2 h, 5 µM",BCRP,2.67 nm/s
same,"Papp A→B at 2 h, 5 µM",MDR1,1.6 nm/s
same,"Papp B→A at 2 h, 5 µM",MDR1,7.9 nm/s
same,Substrate of OCT1,OCT1,not a substrate
same,Substrate of OAT1,OAT1,not a substrate
same,Substrate of OATP1B1,OATP1B1,not a substrate
same,Substrate of OATP1B3,OATP1B3,not a substrate
same,Substrate of MATE2-K,MATE2-K,not a substrate
same,Tolerability at maximum feasible dose,[9],well tolerated
same,Tolerability at maximum feasible dose,[10],well tolerated
